Entries after “also recorded” stand apart in the source; their conditions may differ.
Legend:
[1] = Single i.v. dose toxicity with 14-day observation: clinical signs and mortality; format: in vivo, Sprague-Dawley rats; conditions: nicotine 0.75 mg/kg single i.v.
Protocol: Body weight and food consumption was measured daily for 14 days. On day 15, urine was collected on all surviving animals. The animals were euthanized and bled via cardiac puncture, and blood was collected for analysis. Tissues were collected, weighed, evaluated for gross abnormalities, and stored in 10% neutral-buffered formalin.
Four aliquots of each dose formulation were collected and stored at −80° C.
The animals were weighed prior to dosing and received a single i.v. dose via the lateral tail vein of either test compound or vehicle at a volume of 5 mL/kg.

nAChR α7 = target: T1, nAChR α7 (Homo sapiens, UniProt P36544); test: nAChR α7 positive allosteric modulator assay (FLIPR); format: cell-based; conditions: with 30 μM Ach (= 0%), 30 μM Ach + 10 μM PNU-120596 = 100%
T1 construct: host or cells: CHO cells
Protocol: (§2) The following three (3) channels were evaluated: • 1. nAChR α3/β4 (encoded by the human CHRNA3 and CHRNB4 gene and stably expressed in CHO cells); • 2. nAChR α4/β2 (CHRNA4 and CHRNB2 gene and transiently expressed in HEK293 cells); and • 3. nAChR α7 (encoded by the human nicotinic α7 gene coexpressed in CHO cells with the chaperone RIC-3 encoded by the human RIC3 gene).
(§3) The ability of each test article to act as an agonist, a positive allosteric modulator or antagonist of three nAChR receptor channels was evaluated in the presence of 0.1 atropine. Both test articles were evaluated for responses on each nAChR channel at eight (8) concentrations: 0.3, 1, 3, 10, 30, 100, 300, and 1000 μM (n=4 for each concentration).
(§4) HEK293 or CHO cells were transiently or stably transfected with the appropriate human ion channel cDNAs. Stable transfectants were selected by coexpression with the antibiotic-resistance gene(s) incorporated into the expression plasmid(s). Selection pressure was maintained by including selection antibiotics in the culture medium. HEK293 cells were cultured in Dulbecco's Modified Eagle Medium/Nutrient Mixture F-12 (D-MEM/F-12) supplemented with 10% fetal bovine serum, 100 U/mL penicillin G sodium, 100 g/mL streptomycin sulfate and appropriate selection antibiotics. CHO cells were cultured in Ham's F-12 supplemented with 10% fetal bovine serum, 100 U/mL penicillin G sodium, 100 g/mL streptomycin sulfate and appropriate selection antibiotics.
(§5) For FLIPR TETRA™ assay, cells were plated in 384-well black wall, flat clear bottom microtiter plates (Type: BD Biocoat Poly-D-Lysine Multiwell Cell Culture Plate) at 20,000 to 30,000 cells per well (384-well plate). Cells were incubated at 37° C. overnight or until the cells reached a sufficient density in the wells (near confluent monolayer) to use in fluorescence assays. For α4β2 assay, cells were incubated at 27° C. for at least 7 hours before use.
(§6) Experiments were performed with either the FLIPR calcium sensitive dye kit (Fluo-8, ABDbioquest, for nAChR α3/β4 and nAChR α7) or FLIPR membrane potential kit (Molecular Devices, for nAChR α4/β2) according to the manufacturer's instructions. Briefly, cells were incubated with 201 dye for 30 min at 37° C. After dye loading period, for the agonist assay, 5 μl of the test, vehicle, or control articles at concentration of 5 times of final concentration were applied to the cells without stimulation. For the positive allosteric modulation (PAM) and antagonist assay, after test article application, the cells were stimulated with either low dose (for PAM) or high dose (for antagonist) of Ach.
The ability of each test article to act as a positive allosteric modulator of nicotinic α7 was carried out in the presence of the positive control agonist (30 μM Ach) alone. The signal elicited in the presence of the positive control agonist and allosteric modulator PNU-120596 (30 μM Ach+10 μM PNU-120596) was set to 100% and the signal from the agonist control (30 μM Ach) was set to 0%. Values were considered significant and in bold font if the test article mean was three or more standard deviations above the agonist control mean.

nAChR α4/β2 = target: T2, nAChR α4/β2 (Homo sapiens, UniProt P17787+P43681); test: nAChR α4/β2 positive allosteric modulator assay (FLIPR); format: cell-based; conditions: with 10 μM Ach (= 0%), 10 μM Ach + epibatidine = 100%
T2 construct: host or cells: HEK293 cells, transient transfection
Protocol: as §2, §3, §4, §5, §6
The signal elicited in the presence of the positive control agonist and allosteric modulator epibatidine (10 μM Ach+3 μM epibatidine) was set to 100% and the signal from the agonist control (10 μM Ach) was set to 0%.

Aβ production = Aβ production in 7W CHO cells; format: cell-based
phosphorylated p65 = test: p65 phosphorylation in brain after intracranial TNFα; format: in vivo, Wild-type mice (B6/SJL); conditions: 2 mg/kg i.p., mouse brain, normalized to actin
Protocol: After 5 minutes, mice were intracranially injected with 0.5 mg of TNFα. Mice were euthanized ten minutes after the intracranial injection. The portion of the brain surrounding the intracranial site of injection was collected, and proteins were extracted. Phosphorylation of p65 was measured with an antibody towards phosphorylated p65.

autoimmune thyroiditis = test: Autoimmune thyroiditis in thyroglobulin-immunized mice (Example 16B); format: in vivo, CBA/J female mice; conditions: 0.05 mg/ml in drinking water
Protocol: In another experiment, eighteen CBA/J female mice were immunized with mouse thyroglobulin, emulsified in complete Freund's adjuvant, on day 0 and day 7. One group of mice (n=10) drank regular water. […] Mice were sacrificed 21 days after the first immunization to collect the thyroid gland and the blood. The thyroid was analyzed for the presence of infiltrating mononuclear cells. The blood was analyzed for the levels of antibodies against thyroglobulin.

HEK293 = test: LDH cytotoxicity assay on supernatants of the treated cells; format: cell-based, Human
Protocol: Cytotoxicity assays using the supernatants from the treated cells were conducted using an LDH Cytotoxicity Detection Kit (Roche) according to the manufacturer's instructions.

[2] = system: Experimental Autoimmune Thyroiditis; test: Experimental Autoimmune Thyroiditis (Example 16A): serum antibodies to PPD and thyroglobulin; format: in vivo, mice
Protocol: (§1) Thyroiditis was induced by injection of thyroglobulin emulsified in complete Freund's adjuvant (CFA). On days 0 and 7, female mice received subcutaneous injection of 100 μg thyroglobulin (2 injections of 50 μg each). Control mice drank water. […] Mice were sacrificed on day 21.
Immunochemistry. Serum from control and anatabine-treated mice was examined to determine levels of antibodies to a foreign antigen (PPD).
Levels of antibodies to thyroglobulin were examined on days 7, 14, and 21 after immunization.

[3] = system: LPS-induced IL-1β release; test: LPS-induced IL-1β release in whole human blood; format: cell-based
Protocol: Whole human blood was treated with LPS to stimulate inflammatory responses. […] The inflammatory molecule IL-1β was measured after 16 hours.

[4] = system: Experimental Autoimmune Thyroiditis; test: Experimental Autoimmune Thyroiditis (Example 16A): lymphoid typing by flow cytometry; format: in vivo, mice; conditions: p=0.0143
Protocol: as §1
Lymphoid typing. Cervical lymph nodes were removed for lymphoid typing by flow cytometry. Spleen and peritoneal macrophages were removed for ex vivo stimulation.

T1 sequence (P36544 23-502): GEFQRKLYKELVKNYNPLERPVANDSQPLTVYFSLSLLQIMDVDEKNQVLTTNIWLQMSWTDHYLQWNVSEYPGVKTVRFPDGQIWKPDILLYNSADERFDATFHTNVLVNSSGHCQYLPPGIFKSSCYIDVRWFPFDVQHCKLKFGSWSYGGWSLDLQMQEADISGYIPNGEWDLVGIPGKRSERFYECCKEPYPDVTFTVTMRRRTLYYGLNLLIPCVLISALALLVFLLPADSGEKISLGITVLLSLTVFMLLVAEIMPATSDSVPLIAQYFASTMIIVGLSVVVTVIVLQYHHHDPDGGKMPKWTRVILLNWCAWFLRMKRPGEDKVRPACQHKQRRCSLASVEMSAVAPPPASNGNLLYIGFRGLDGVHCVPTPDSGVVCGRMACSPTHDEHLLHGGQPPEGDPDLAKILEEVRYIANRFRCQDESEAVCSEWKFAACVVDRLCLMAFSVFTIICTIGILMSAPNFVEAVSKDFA
T2 sequence (P17787 26-502): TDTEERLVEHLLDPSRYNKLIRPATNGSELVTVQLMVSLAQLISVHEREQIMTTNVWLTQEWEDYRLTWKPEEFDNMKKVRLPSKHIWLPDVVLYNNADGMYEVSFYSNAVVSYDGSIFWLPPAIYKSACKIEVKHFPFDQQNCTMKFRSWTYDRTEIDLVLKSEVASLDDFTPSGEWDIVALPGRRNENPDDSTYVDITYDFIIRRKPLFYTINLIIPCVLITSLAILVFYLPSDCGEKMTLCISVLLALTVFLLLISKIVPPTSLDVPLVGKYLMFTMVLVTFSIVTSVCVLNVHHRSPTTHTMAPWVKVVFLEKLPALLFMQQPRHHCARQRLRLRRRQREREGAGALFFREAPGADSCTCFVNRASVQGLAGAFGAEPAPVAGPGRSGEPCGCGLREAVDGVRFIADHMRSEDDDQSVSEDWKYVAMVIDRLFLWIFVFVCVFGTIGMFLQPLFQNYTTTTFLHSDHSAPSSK
T2 sequence (P43681 29-627): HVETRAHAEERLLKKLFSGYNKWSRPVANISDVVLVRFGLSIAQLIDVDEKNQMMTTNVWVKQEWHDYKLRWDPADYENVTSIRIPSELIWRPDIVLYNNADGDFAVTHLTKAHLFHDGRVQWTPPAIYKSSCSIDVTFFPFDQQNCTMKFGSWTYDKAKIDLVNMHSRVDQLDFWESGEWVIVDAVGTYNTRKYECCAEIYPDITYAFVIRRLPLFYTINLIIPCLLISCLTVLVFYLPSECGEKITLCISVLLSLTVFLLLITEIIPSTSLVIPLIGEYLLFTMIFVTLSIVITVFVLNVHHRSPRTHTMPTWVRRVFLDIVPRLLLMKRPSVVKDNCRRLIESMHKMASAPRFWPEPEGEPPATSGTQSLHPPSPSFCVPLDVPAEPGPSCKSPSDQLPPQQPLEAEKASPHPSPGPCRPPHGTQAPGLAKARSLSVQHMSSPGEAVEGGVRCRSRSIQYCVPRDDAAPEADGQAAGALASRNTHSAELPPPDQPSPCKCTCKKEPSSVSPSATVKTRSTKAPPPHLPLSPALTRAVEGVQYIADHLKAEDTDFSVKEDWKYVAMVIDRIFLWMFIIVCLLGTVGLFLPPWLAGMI

For `CN1CCCC1c1cccnc1.O=C(O)C(O)C(O)C(=O)O` (single isomer, unassigned; (-)) [Nicotine, (−) Nicotine hydrogen tartrate, reference compound], the mortality ([1]; 5 males and 5 females, tartrate) was “One male and two females died post dose; also recorded: one male animal and 2 females died following test compound administration” and the “clinical signs after dosing” value ([1]; male and female rats) was “experienced tremors upon compound administration but returned to normal within 15-20 minutes post dose”.
For `C1=CCC(c2cccnc2)NC1` (racemic) [Anatabine (racemate)], the “Normalized % Potentiation” value (nAChR α7; test conc 0.3 μM) was −0.94%, the “Normalized % Potentiation” value (nAChR α7; test conc 1 μM) was −1.05% and the “Normalized % Potentiation” value (nAChR α7; test conc 3 μM) was −0.82%. For the same compound, the “Normalized % Potentiation” value (nAChR α7; test conc 10 μM) was −0.51%, the “Normalized % Potentiation” value (nAChR α7; test conc 30 μM) was −0.57% and the “Normalized % Potentiation” value (nAChR α7; test conc 100 μM) was −0.64%. The “Normalized % Potentiation” value (nAChR α7; test conc 300 μM) was −0.74%, the “Normalized % Potentiation” value (nAChR α7; test conc 1000 μM) was −1.05% and the “Normalized % Potentiation” value (nAChR α4/β2; test conc 0.3 μM) was −18.94%. For the same compound, the “Normalized % Potentiation” value (nAChR α4/β2; test conc 1 μM) was −27.03%, the “Normalized % Potentiation” value (nAChR α4/β2; test conc 3 μM) was −35.59% and the “Normalized % Potentiation” value (nAChR α4/β2; test conc 10 μM) was −42.34%. For the same compound, the “Normalized % Potentiation” value (nAChR α4/β2; test conc 30 μM) was −39.48%, the “Normalized % Potentiation” value (nAChR α4/β2; test conc 100 μM) was −38.34% and the “Normalized % Potentiation” value (nAChR α4/β2; test conc 300 μM) was −41.07%. The “Normalized % Potentiation” value (nAChR α4/β2; test conc 1000 μM) was −35.30%.
For `C1=CCC(c2cccnc2)NC1` (racemic) [Anatabine, 1,2,3,6-tetrahydro-[2,3′]bipyridinyl], the “Aβ production (Aβ1-42, Aβ1-40)” value (Aβ production) was “concentration-dependent reduction of Aβ production”, the p65 phosphorylation (phosphorylated p65) was “reduced p65 phosphorylation in mouse brain” and the “levels of thyroglobulin antibodies” value (autoimmune thyroiditis; day 21) was “had no effect on the levels of thyroglobulin antibodies”. The “thyroiditis frequency and severity” value (autoimmune thyroiditis; day 21, p=0.023) was “developed thyroiditis less frequently and of lower severity”, the “cytotoxicity (LDH release)” value (HEK293) was “without cellular toxicity” and the “levels of antibodies to PPD” value ([2]; 0.05 mg/ml in drinking water, versus control) was “no significant difference”. For the same compound, the “levels of antibodies to thyroglobulin” value ([2]; day 7) was “no significant difference”, the “levels of antibodies to thyroglobulin” value ([2]; day 14, p=0.086) was “tended to have lower thyroglobulin antibodies” and the “levels of antibodies to thyroglobulin” value ([2]; day 21) was “no significant difference”. The “IL-1β production over time” value ([3]; LPS-stimulated human blood, repeated measurement (Example 15)) was “rapid and continuous effect on the suppression”, the “accumulation of IL-1β” value ([3]; LPS-treated whole human blood, 16 hours (Example 13)) was “reduced accumulation of IL-1β” and the “accumulation of IL-1β over dose response” value ([3]; LPS-treated whole human blood, 16 hours (Example 14)) was “reduced accumulation of IL-1β”. The “activated T cells” value ([4]; cervical lymph nodes) was “fewer activated T cells”, the “regulatory T cells” value ([4]; cervical lymph nodes) was “more regulatory T cells” and the “ability to present antigens” value [4] was “a lower ability to present antigens”.

— patent publication US20120196899A1, “METHODS AND PRODUCTS FOR TREATING INFLAMMATION” (Rock Creek Pharmaceuticals, Inc., priority 2010, published 2012)
